The text below walks through data of patent publication US20100304418A1, “Compositions and Methods for Monitoring Flow Through Fluid Conducting and Containment Systems” (priority 2007, published 2010).

In series [1] the test system is seawater bacteria. Conditions: 28 day seawater test.
The nature of series [2]: Biodegradation, 28 day seawater test, OECD 306. Particulars: over 28 days.
Series [3] can be described thus: Heat treatment of GFP solution with added biotin. Particulars: 100° C. for 1 hour in GFP solution.
Method: The sample has high fluorescence from the GFP. This solution was treated in 2 ways (a) no treatment (b) heat treated (samples were heated to 100° C. for 1 hour in an oven).
For series [4], the target named is T1, galactose oxidase (Gibberella zeae, UniProt P0CS93). In kind it is biochemical.
T1 sequence (P0CS93 42-680 limits assumed): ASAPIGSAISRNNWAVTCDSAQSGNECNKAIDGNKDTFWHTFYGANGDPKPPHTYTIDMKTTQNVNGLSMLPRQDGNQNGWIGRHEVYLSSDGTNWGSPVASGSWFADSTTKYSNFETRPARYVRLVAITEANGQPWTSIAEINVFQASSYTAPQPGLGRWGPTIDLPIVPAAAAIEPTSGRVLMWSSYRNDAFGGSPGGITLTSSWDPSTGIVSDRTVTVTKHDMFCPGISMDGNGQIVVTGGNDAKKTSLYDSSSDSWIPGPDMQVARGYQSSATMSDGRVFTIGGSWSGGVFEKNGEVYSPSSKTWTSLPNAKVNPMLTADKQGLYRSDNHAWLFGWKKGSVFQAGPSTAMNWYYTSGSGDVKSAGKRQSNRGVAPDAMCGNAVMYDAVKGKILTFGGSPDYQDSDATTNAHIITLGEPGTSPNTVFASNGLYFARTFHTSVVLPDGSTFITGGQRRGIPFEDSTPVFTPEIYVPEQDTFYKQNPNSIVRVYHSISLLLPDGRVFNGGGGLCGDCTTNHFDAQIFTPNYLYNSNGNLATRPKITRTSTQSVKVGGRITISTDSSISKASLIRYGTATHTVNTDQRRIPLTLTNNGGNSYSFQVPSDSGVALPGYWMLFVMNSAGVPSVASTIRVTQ
Series [5] addresses T1, galactose oxidase.
Series [6] is described as follows: Thermal stability of galactose and derivatives. Conditions: 20 h.
Method: The thermal stability of both galactose and octy-galactose was investigated. Galactose and octyl-galacotse solutions (50 ppm, 30 mL) were prepared in both deionised water and formation water. These solutions were divided and the pH of one water sample and one formation water sample was adjusted to 2 with HCl. 4.5 mL of each solution was placed in a duran bottle with Teflon tape wrapped around the threads to prevent evaporation. The eight samples were heated at 100 or 120° C. for 20 h. The remaining solutions were kept at 4° C. inbetween experiments. Each of the samples was diluted 10-fold before analysis.
Series [7] concerns the target T2, xanthine oxidase (Bos taurus, UniProt P80457).
T2 construct: purchased
The experiment in a line: Limit of detection of xanthine and hypoxanthine, xanthine oxidase / Amplex Red assay.
From the text: This assay uses xanthine oxidase to catalyze the oxidation of hypoxanthine or xanthine, to uric acid and superoxide. The superoxide spontaneously degrades to hydrogen peroxide (H2O2), which reacts stoichiometrically with Amplex® Red in the presence of horseradishperoxidase (HRP). A fluorescent product, resorufin, is generated which can be detected fluorometrically or spectrophotometrically.

Series [8] can be described thus: Thermostability of xanthine and hypoxanthine. Conditions: room temperature and 120° C., 20 h, acidic and neutral pH.
Method: These solutions were divided and the pH of one sample of each compound was adjusted to 2 with HCl. 4.5 mL of each solution was placed in a duran bottle with Teflon tape wrapped around the threads to prevent evaporation. The samples were heated at 120° C. for 20 h. The remaining solutions were kept at 25° C. Each of the samples was diluted 10-fold to 7.5 ppm before analysis.

T2 sequence (P80457 whole entry): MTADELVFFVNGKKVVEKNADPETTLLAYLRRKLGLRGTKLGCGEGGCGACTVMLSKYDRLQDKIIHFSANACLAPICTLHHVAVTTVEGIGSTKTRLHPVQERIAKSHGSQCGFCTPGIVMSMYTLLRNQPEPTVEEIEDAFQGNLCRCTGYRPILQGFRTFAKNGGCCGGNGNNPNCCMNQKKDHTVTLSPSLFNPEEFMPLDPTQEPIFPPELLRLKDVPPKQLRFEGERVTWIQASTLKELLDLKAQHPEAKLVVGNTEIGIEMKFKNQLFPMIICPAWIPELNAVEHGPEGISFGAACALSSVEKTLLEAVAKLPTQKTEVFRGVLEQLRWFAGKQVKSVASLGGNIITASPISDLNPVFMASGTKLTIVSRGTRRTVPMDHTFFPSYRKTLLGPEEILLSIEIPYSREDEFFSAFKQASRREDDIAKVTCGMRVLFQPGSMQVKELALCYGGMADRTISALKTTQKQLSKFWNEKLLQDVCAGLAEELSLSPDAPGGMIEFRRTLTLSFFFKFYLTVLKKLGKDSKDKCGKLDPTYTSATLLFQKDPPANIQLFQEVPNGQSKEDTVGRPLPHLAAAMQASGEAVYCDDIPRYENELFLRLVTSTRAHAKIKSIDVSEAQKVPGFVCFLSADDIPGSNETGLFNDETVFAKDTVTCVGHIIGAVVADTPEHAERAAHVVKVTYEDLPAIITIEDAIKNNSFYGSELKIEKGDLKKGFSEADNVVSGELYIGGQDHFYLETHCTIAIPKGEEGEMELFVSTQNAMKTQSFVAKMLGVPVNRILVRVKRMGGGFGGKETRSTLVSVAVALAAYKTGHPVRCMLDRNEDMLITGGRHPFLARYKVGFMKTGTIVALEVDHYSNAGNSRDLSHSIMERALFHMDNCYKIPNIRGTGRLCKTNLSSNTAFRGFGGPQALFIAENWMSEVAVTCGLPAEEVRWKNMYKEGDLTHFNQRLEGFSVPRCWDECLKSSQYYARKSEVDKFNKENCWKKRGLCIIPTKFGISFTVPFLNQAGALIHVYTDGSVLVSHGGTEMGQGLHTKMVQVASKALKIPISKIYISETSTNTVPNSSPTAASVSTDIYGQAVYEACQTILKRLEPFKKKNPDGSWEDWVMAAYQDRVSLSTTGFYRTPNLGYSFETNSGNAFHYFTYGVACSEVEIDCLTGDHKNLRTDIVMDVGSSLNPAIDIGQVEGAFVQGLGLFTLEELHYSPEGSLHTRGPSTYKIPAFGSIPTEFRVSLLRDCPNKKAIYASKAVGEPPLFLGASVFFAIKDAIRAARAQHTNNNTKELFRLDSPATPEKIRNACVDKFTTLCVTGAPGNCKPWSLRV

As to `O=C(O)CCCC[C@@H]1SC[C@@H]2NC(=O)N[C@@H]21` [biotin], the “inhibition to seawater bacteria” value in series [1] is 42%. Besides, the degradation in series [2] was found to be 14%. Besides, the “effect of heat treatment on biotin detection” value in series [3] is “unaffected”. Moreover, the “drop in fluorescence after heat and pressure” value (250 nM in synthetic formation water, 150° C., 3 kbar, 15 minutes) was “no obvious drop in fluorescence”. Also, the “loss of fluorescence due to temperature and pressure” value (dilution series, increasing temperatures up to 150° C., 4 kbar, aqueous phase of produced fluids) is listed as “No loss of fluorescence”.

With `O=C(CO)[C@@H](O)[C@H](O)[C@H](O)CO` [fructose], the “oxidation by galactose oxidase / interference with galactose assay” value in [4] was “can be oxidized by galactose oxidase”.

Regarding `O=C[C@H](O)[C@@H](O)[C@@H](O)[C@H](O)CO` [galactose], in series [5], the detectable concentration range was 0-30 ppm and the limit of detection entry was “ca. 0.3 ppm”. For the same compound, the thermal stability entry in series [6] (above 100° C. (120° C.)) is on record as “a drop in concentration is observed”. For the same compound, in series [6] (to 100° C., water and formation water, pH 6-7 and pH 2), the thermal stability entry is reported as “sufficiently stable”.

In the case of `O=c1[nH]cnc2nc[nH]c12` [hypoxanthine], the limit of detection in series [7] is greater than 0.02 ppm. The thermal stability result in [8] was “stable”.

With `O=c1[nH]c(=O)c2[nH]cnc2[nH]1` [xanthine], the limit of detection result in series [7] was “less than 0.16 ppm”.
